Measurements: patent US8058425B2, “Purine derivatives as kinase inhibitors” (Eli Lilly and Company, priority 2002, dated 2011)

How the values were obtained:
3T3-L1 adipocytes = experiment: Glycogen Synthesis Assay; assay type: cell-based; settings: 0.1 μM
Description: The glycogen synthesis assay measures the increase in the production of glycogen both in the absence and in the presence of insulin in the cells. This test is done according to standard protocols. (Berger, J. and Hayes, N. S., Anal. Biochem., 261, 159-163 (1998)). Briefly, 3T3-L1 adipocytes are plated and differentiated in a 96-well plate at 25,000 cells/well. The plate is serum-starved overnight. The serum-starvation media is removed just prior to assay, and the plate is washed with 100 μl/well Krebs-Ringer-Hepes buffer (KRBH). The KRBH is removed and 50 μl of compound (twice the amount of the final concentration) is added to the assay plate. Next, 50 μl of ^14C-labeled glucose is added to the assay plate at 0.1 μCi/well. The plate is then incubated at 37° C. for 2 hours.
The plate is washed with 100 μL/well of PBS, and the cells are lysed with 75 μl/well of 1N NaOH. The plate is heated at 70° C. for 20 minutes. An aliquot (50 μl) of the supernatant is transferred from the assay plate to a Millipore FC filter plate containing 120 μl/well of ice-cold ethanol. The plate is allowed to stand for 2 hours at 4° C. to facilitate precipitation. The ethanol is removed from the filter plate via a vacuum manifold, and the plate is washed with 100 uL/well of ice-cold 70% ethanol. […] The plate was then counted on a Packard Topcount. […]

ZDF rats = experiment: Glucose Lowering Assay; assay type: in vivo, rat; settings: oral gavage, dose of 10 mg/kg
Description: The glucose lowering assay is an in vivo test that measures the effect of the test compound on blood glucose and triglycerides relative to insulin. (ELDAR-FINKLEMAN, H., et al., Expression and Characterization of Glycogen Synthase Kinase-3 Mutants and Their Effect on Glycogen Synthase Activity in Intact Cells, Proc. Nat. Acad. Sci, 93, 10228-10233 (1996)). Briefly, ZDF rats (Charles River, Inc.) at six weeks of age are housed individually with free access to food and water. Rats are dosed with drug once daily by oral gavage, with the compound prepared as a suspension in 1% caboxymethylcellusolve/0.25% Tween 80 (CMC-Tween). Vehicle controls are dosed with CMC-Tween only. The duration of study varied according to the protocol used, with acute dosing studies lasting one day and dose escalation studies lasting seven days. Body weights and food consumption measurements are also performed once a week for seven-day studies. For measurement of blood glucose and triglycerides, blood samples of 600 μl are collected by the tail snip method. […]

[1] = molecular target: T1, GSK-3β kinase activity in brain cortex tissue (Mus musculus, UniProt Q9WV60); experiment: Ex Vivo Brain Assay; assay type: in vivo; settings: oral dosing of mice, dose of 20 mg/kg
T1 construct: brain cortex tissue is dissected and homogenized in freshly prepared lysis buffer; from tissue; host or cells: mouse (PDAPP or CD-1) brain cortex, cytosolic homogenate
Description: The ex vivo brain assay assesses the GSK-3β kinase activity of the test compound in brain cortex tissue according to standard protocols (Wang, et al., Anal. Biochem., 220, 397-402 (1994)).
The ex vivo GSK-3β kinase activity of a compound is assayed following oral dosing of 2 to 3 month old PDAPP or CD-1 mice. After a 20 mg/kg, 24-hour dose, followed by an additional three-hour dose, brain cortex tissue is dissected and homogenized in freshly prepared lysis buffer (10 mM K2HPO4 pH 7.2, 1 mM EDTA, 5 mM EGTA, 10 mM MgCl2, 50 mM β-Glycerophosphate, 1 mM Na3VO4, 2 mM DTT, 1 μM Microcystin, COMPLETE protease inhibitor tablet, no detergent). Following a thirty-minute incubation on ice, cortex homogenate samples are centrifuged (100,000 G) for 30 minutes at 4° C. (Ahmed, N. N., et al., Oncogene, 8, 1957 […]). The total protein concentration of homogenate is determined using the BCA method (Pierce). GSK-3β activity in cytosolic homogenate from vehicle- and compound-treated mice is then assayed. The kinase reaction occurs in a 50 μl total volume containing 20 mM MOPS pH 7.4, 25 mM β-glycerol phosphate, 5 mM EGTA, 1 mM NA3VO4, 1 mM DTT, 15 mM MgCl2, 100 μM cold ATP, 200 μM CREB peptide, 10 μL cytosolic cortex brain homogenate, and 5 μCi γ-^33P-ATP. […] The following day, the filter plate is read for ^33P on Top Count (Packard). […]

[2] = tested on: AG04160C FAD lymphoblast cells; experiment: Beta-Catenin Protection Assay; assay type: cell-based, human; settings: 0.1 μM, 24 hours
Description: The beta-catenin assay is the fold induction over basal beta-catenin and is performed according to standard protocols (Hedgepeth, C. M., Dev. Biol., 185, 82-91 (1997); Chen, G., et al., J. Neurochem., 72, 1327-1330 (1999); Hong, M., et al., J. Biol. Chem., 272, 25326-25332 (1997)).
The human familial Alzheimer's disease (FAD) presenilin-1 AG04160C lymphoblast cell line (Coriell Cell Repository, Camden, N.J.) is maintained as a suspension culture in RPMI 1640 (with L-Glutamine) supplemented with 10% fetal bovine serum and 1% penicillin-streptomycin in an atmosphere of 37° C. and 5% CO2. The AG04160C FAD lymphoblast cells are seeded in T-25 cm^2 flasks at 2.5 to 5.0×10^5 cells/ml in a total volume of 10 ml. […] The total protein concentration in whole cell lysate samples is determined using the BCA method (Pierce). Next, 15 μg of sample is loaded on a 10% Bis-Tris NuPage gel and transferred to a pure nitrocellulose membrane followed by β-catenin immunoblot analysis using a (3-catenin specific antibody (Transduction Labs). The β-catenin accumulation/stability is then quantified following densitometry analysis of protein bands (Kodak Digital Science). Final results are reported as fold induction over basal β-catenin. The compound of Example 121 was tested in this assay and induced a 9.8-fold induction of β-catenin at 0.1 μM.

female Fischer 344 rats = experiment: Bone Deposition; assay type: in vivo, rat; parameters: key: +: hypertrophy and proliferation of osteoblasts with production of osteoid observed; −: hypertrophy and proliferation of osteoblasts with production of osteoid not observed at this dose; settings: oral gavage daily for 4 days
Description: Vehicle or test compound in vehicle (1% Carboxymethylcellulose sodium, 0.25% Polysorbate 80, and 0.05% Dow Corning Antifoam 1510-US in purified water) is administered orally by gavage to female Fischer 344 rats daily for 4 days with three rats in each dosage group. The rats are delivered for necropsy and sections of formalin-fixed, paraffin-embedded bone are examined microscopically to evaluate osteoblast proliferation and deposition of osteoid.
The compounds in the following tables were tested essentially as described above and hypertrophy and proliferation of osteoblasts along surfaces of medullary trabecula and the cortical periosteum accompanied by production of osteoid was observed.
The compound of Example 365 was tested again essentially as described above at 0, 3, 10, and 30 mg/kg with four rats at each dosage level for 21 days. The vertebra and the femur were submitted for analysis of bone mineral density (BMD), bone mineral content (BMC), and cross sectional area following 21 days of daily dosing with the compound of Example 365.

T1 sequence (Q9WV60 whole entry): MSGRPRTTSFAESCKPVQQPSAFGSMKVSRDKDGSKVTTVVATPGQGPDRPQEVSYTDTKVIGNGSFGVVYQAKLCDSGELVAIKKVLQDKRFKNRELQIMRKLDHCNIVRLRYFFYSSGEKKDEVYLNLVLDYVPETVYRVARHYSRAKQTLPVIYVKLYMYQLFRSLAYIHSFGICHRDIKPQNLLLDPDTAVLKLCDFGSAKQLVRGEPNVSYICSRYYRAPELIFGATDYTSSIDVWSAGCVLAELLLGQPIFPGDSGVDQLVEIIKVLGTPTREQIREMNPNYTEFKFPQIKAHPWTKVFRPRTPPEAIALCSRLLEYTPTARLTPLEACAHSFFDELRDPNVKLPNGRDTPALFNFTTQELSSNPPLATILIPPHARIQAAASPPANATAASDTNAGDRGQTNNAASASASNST

inhibition of kinase activity (ex vivo GSK-3β, brain cortex) [1] [%]	fold induction over basal β-catenin [2] [fold]	Compound	increase of glycogen synthesis (3T3-L1 adipocytes; in the absence of insulin) [fold]	increase of glycogen synthesis (3T3-L1 adipocytes; in the presence of insulin) [fold]	glucose lowering (ZDF rats) [%]	hypertrophy and proliferation of osteoblasts with production of osteoid (female Fischer 344 rats; 50 mg/kg)	hypertrophy and proliferation of osteoblasts with production of osteoid (female Fischer 344 rats; 150 mg/kg)
30	9.8	Cl.O=C1NC(=O)C(c2cc(F)cc3ccoc23)=C1c1cn2c3c(cccc13)CNCC2 [Example 121, 3-(6,7-dihydro-6H-[1,4]diazepino[6,7,1-hi]indol-1-yl)-4-(5-fluorobenzofur-7-yl)-2,5-dioxopyrrole hydrochloride]	3.7	6.4	56	–	–
–	–	O=C1NC(=O)C(c2cnc3ccccn23)=C1c1cn2c3c(cccc13)CN(c1ncccn1)CC2 [Example 560, 3-(6-(pyrimidin-2-yl)-6,7-dihydro-6H-[1,4]diazepino[6,7,1-hi]indol-1-yl)-4-(imidazo[1,2-a]pyridin-3-yl)pyrrole-2,5-dione]	–	–	–	+	+
